In the NIST ThermoML archive (doi:10.1021/acs.jced.7b01006):

Assay: xn = mol fraction of the nth substance listed
Settings: 100 kPa, Liquid; for electrical conductivity: Alternating current cell with electrodes; for viscosity: Falling or rolling sphere viscometry; for mass density: Vibrating tube method

CCC[n+]1ccn(C)c1C.N#C[S-] [1,2-dimethyl-3-propylimidazolium thiocyanate] + CC#N
Settings	electrical conductivity [S/m]	mass density [kg/m3]	viscosity [mPa·s]
288.15 K, x1 = 0.1002	5.17	884.48	7.694
288.15 K, x1 = 0.2002	4.31	948.75	16.21
288.15 K, x1 = 0.2998	3.45	996.05	29.71
288.15 K, x1 = 0.4001	2.35	1028.84	51.08
288.15 K, x1 = 0.4997	1.21	1052.44	81.84
288.15 K, x1 = 0.5998	0.95	1067.26	120.8
288.15 K, x1 = 0.7002	0.685	1077.84	166.5
288.15 K, x1 = 0.7999	0.496	1085.72	215
288.15 K, x1 = 0.8999	0.378	1093.78	264.8
288.15 K, x1 = 1	0.255	1099.81	316.5
293.15 K, x1 = 0.1002	5.5	880.24	5.454
293.15 K, x1 = 0.2002	4.67	945.16	11.9
293.15 K, x1 = 0.2998	3.84	992.52	22.12
293.15 K, x1 = 0.4001	2.64	1025.75	37.64
293.15 K, x1 = 0.4997	1.46	1049.28	58.62
293.15 K, x1 = 0.5998	1.16	1064.44	85.72
293.15 K, x1 = 0.7002	0.883	1075.11	117.1
293.15 K, x1 = 0.7999	0.639	1083.11	150.3
293.15 K, x1 = 0.8999	0.478	1090.97	183.5
293.15 K, x1 = 1	0.361	1096.75	215.8
298.15 K, x1 = 0.1002	5.83	876.09	3.864
298.15 K, x1 = 0.2002	5.05	941.45	8.717
298.15 K, x1 = 0.2998	4.27	988.89	16.33
298.15 K, x1 = 0.4001	2.98	1022.71	27.66
298.15 K, x1 = 0.4997	1.72	1046.39	42.09
298.15 K, x1 = 0.5998	1.4	1061.68	60.63
298.15 K, x1 = 0.7002	1.08	1072.2	82.01
298.15 K, x1 = 0.7999	0.789	1080.57	105
298.15 K, x1 = 0.8999	0.589	1088.08	128.8
298.15 K, x1 = 1	0.459	1093.67	151.9
303.15 K, x1 = 0.1002	6.16	871.55	2.697
303.15 K, x1 = 0.2002	5.43	937.88	6.468
303.15 K, x1 = 0.2998	4.71	985.24	12.26
303.15 K, x1 = 0.4001	3.36	1019.65	20.36
303.15 K, x1 = 0.4997	2.01	1043.41	30.78
303.15 K, x1 = 0.5998	1.67	1058.77	44.13
303.15 K, x1 = 0.7002	1.32	1069.41	59.49
303.15 K, x1 = 0.7999	0.973	1077.79	76.35
303.15 K, x1 = 0.8999	0.72	1085.29	93.37
303.15 K, x1 = 1	0.583	1090.61	110.1
